Test results reported in publication PMC11045757, “Group 3 medulloblastoma transcriptional networks collapse under domain specific EP300/CBP inhibition” (Nature Communications, 2024).

System: 460 barcoded cancer cell lines
Experiment: PRISM pooled barcoded cancer cell line growth screen, 10-point dose-response, 5 days, AUC
Type: cell-based
Set-up: scale not given here
Excerpt: Several small molecule inhibitors of distinct protein domains of EP300/CBP are available, though the majority target the histone acetyltransferase domain (HAT) or bromodomain (BRD)[5],[10],[21],[22]. […] We used these tools to investigate the relative contribution of the EP300/CBP BRD or HAT domain to tumor cell growth (Fig. 1a). To do so, we performed 10-point, dose-response growth assays using mixed pools of 460 barcoded cancer cell lines, over five days of treatment in vitro[33],[34]. Growth was measured using an area-under-the-curve (AUC) approach (Supplementary Table 1, Supplementary Fig. 1a). […] Given potential differences in compound penetration and solubility, and to compare the relative cell line and tumor-specific effects of these two compounds in assays performed non-simultaneously, we performed a median normalization of each dataset (Supplementary Table 2).

CNC(=O)Nc1ccc2c(c1)CCC21OC(=O)N(CC(=O)N(Cc2ccc(F)cc2)C(C)C(F)(F)F)C1=O (centres unmarked) [Compound A485]
AUC (MG63, Osteosarcoma): 0.9115
AUC (MHHES1, Ewing Sarcoma): 0.4553
AUC (MHHNB11, Neuroblastoma): 0.7182
AUC (MIAPACA2, Pancreatic Cancer): 0.9009
AUC (MKN1, Gastric Cancer): 0.9671
AUC (MKN7, Gastric Cancer): 0.9501
AUC (MKN45, Gastric Cancer): 0.5235
AUC (MOLM13, AML): 0.5776
AUC (MOLM16, AML): 1
AUC (MOLT3, T-acute leukemia): 0.8162
AUC (MOLT16, T-acute leukemia): 0.9273
AUC (MON, Rhabdoid): 0.6327
AUC (NB1, Neuroblastoma): 0.493
AUC (NB4, AML): 1
AUC (NCIH23, Lung Cancer): 0.8307
AUC (NCIH28, Lung Cancer): 0.8488
AUC (NCIH82, Lung Cancer): 1
AUC (NCIH196, Lung Cancer): 0.825
AUC (NCIH211, Lung Cancer): 0.6824
AUC (NCIH226, Lung Cancer): 0.8402
AUC (NCIH292, Lung Cancer): 0.7841
AUC (NCIH322, Lung Cancer): 0.7616
AUC (NCIH358, Lung Cancer): 0.8611
AUC (NCIH441, Lung Cancer): 0.8818
AUC (NCIH460, Lung Cancer): 0.9648
AUC (NCIH520, Lung Cancer): 0.9521
AUC (NCIH524, Lung Cancer): 0.8317
AUC (NCIH596, Lung Cancer): 0.8954
AUC (NCIH647, Lung Cancer): 1
AUC (NCIH650, Lung Cancer): 0.8159
AUC (NCIH661, Lung Cancer): 0.6677
AUC (NCIH747, Colon/Colorectal Cancer): 0.838
AUC (NCIH841, Lung Cancer): 0.8663
AUC (NCIH1048, Lung Cancer): 0.8631
AUC (NCIH1299, Lung Cancer): 0.8424
AUC (NCIH1341, Lung Cancer): 1
AUC (NCIH1373, Lung Cancer): 0.7413
AUC (NCIH1437, Lung Cancer): 0.6724
AUC (NCIH1568, Lung Cancer): 0.921
AUC (NCIH1573, Lung Cancer): 0.8005
AUC (NCIH1581, Lung Cancer): 0.7694
AUC (NCIH1648, Lung Cancer): 0.776
AUC (NCIH1792, Lung Cancer): 0.691
AUC (NCIH1793, Lung Cancer): 0.7572
AUC (NCIH1838, Lung Cancer): 0.8275
AUC (NCIH1930, Lung Cancer): 1
AUC (NCIH1944, Lung Cancer): 0.8729
AUC (NCIH1975, Lung Cancer): 0.8115
AUC (NCIH2004RT, Rhabdoid): 0.9741
AUC (NCIH2052, Lung Cancer): 0.6997
AUC (NCIH2122, Lung Cancer): 0.4802
AUC (NCIH2170, Lung Cancer): 0.9434
AUC (NCIH2172, Lung Cancer): 0.8484
AUC (NCIH2196, Lung Cancer): 0.8734
AUC (NCIH2228, Lung Cancer): 0.7811
AUC (NCIH2347, Lung Cancer): 0.6039
AUC (NCIH2444, Lung Cancer): 0.8316
AUC (NCO2, CML): 0.8351
AUC (NIHOVCAR3, Ovarian Cancer): 0.9964
AUC (NUDHL1, Lymphoma): 0.9213
AUC (NUGC3, Gastric Cancer): 0.8775
AUC (OAW42, Ovarian Cancer): 0.7266
AUC (OC314, Ovarian Cancer): 0.891
AUC (OC316, Ovarian Cancer): 0.9187
AUC (OCIAML2, AML): 0.6159
AUC (OCIAML3, AML): 0.7819
AUC (OCILY19, Lymphoma): 0.6711
AUC (OCILY132, T-cell lymphoma): 0.9357
AUC (OCIM1, AML): 0.6185
AUC (OE19, Esophageal Cancer): 0.9392
AUC (OE21, Esophageal Cancer): 0.6998
AUC (ONCODG1, Ovarian Cancer): 0.9734
AUC (ONS76, Medulloblastoma): 0.7969
AUC (OSRC2, Kidney Cancer): 0.9758
AUC (OV56, Ovarian Cancer): 0.9822
AUC (OVCAR8, Ovarian Cancer): 0.8889
AUC (OVISE, Ovarian Cancer): 0.951
AUC (OVK18, Ovarian Cancer): 0.5397
AUC (OVKATE, Ovarian Cancer): 0.8663
AUC (OVTOKO, Ovarian Cancer): 0.8262
AUC (PANC0203, Pancreatic Cancer): 0.6928
AUC (PANC0327, Pancreatic Cancer): 0.889
AUC (PANC0403, Pancreatic Cancer): 0.6894
AUC (PANC0504, Pancreatic Cancer): 0.8448
AUC (PANC0813, Pancreatic Cancer): 0.8655
AUC (PATU8902, Pancreatic Cancer): 0.9465
AUC (PC3, Prostate Cancer): 0.8494
AUC (PECAPJ15, Head and Neck Cancer): 0.6653
AUC (PF382, T-acute leukemia): 0.7674
AUC (PK1, Pancreatic Cancer): 0.6974
AUC (PK59, Pancreatic Cancer): 0.9772
AUC (PSN1, Pancreatic Cancer): 0.6172
AUC (RCM1, Colon/Colorectal Cancer): 0.8245
AUC (RD, Rhabdomyosarcoma): 0.8188
AUC (RDES, Ewing Sarcoma): 0.6507
AUC (RERFLCAI, Lung Cancer): 0.874
AUC (RERFLCKJ, Lung Cancer): 0.7393
AUC (RH4, Rhabdomyosarcoma): 0.678
AUC (RH28, Rhabdomyosarcoma): 1
AUC (RH36, Rhabdomyosarcoma): 1
AUC (RHJT, Rhabdomyosarcoma): 1
AUC (RI1, B-cell Lymphoma): 0.6781
AUC (RL952, Endometrial/Uterine Cancer): 0.946
AUC (RL, B-cell Lymphoma): 0.7056
AUC (RPMI8402, T-acute leukemia): 0.6488
AUC (RT4, Bladder Cancer): 0.8068
AUC (RVH421, Melanoma): 0.6261
AUC (S117, Thyroid Sarcoma): 0.733
AUC (SAOS2, Osteosarcoma): 0.6843
AUC (SCABER, Bladder Cancer): 0.7254
AUC (SCC9, Head and Neck Cancer): 0.6982
AUC (SCC25, Head and Neck Cancer): 0.8637
AUC (SCLC21H, Lung Cancer): 0.7482
AUC (SEM, B-cell Leukemia): 0.591
AUC (SF539, Glioma): 0.7626
AUC (SH4, Melanoma): 0.7491
AUC (SH10TC, Gastric Cancer): 0.9483
AUC (SHP77, Lung Cancer): 1
AUC (SIMA, Neuroblastoma): 0.7689
AUC (SJSA1, Osteosarcoma): 0.6938
AUC (SKES1, Ewing Sarcoma): 0.5686
AUC (SKHEP1, Liver Cancer): 0.9176
AUC (SKM1, AML): 0.6691
AUC (SKMEL30, Melanoma): 0.8035
AUC (SKMES1, Lung Cancer): 0.6858
AUC (SKMM2, Myeloma): 0.9139
AUC (SKNAS, Neuroblastoma): 0.7465
AUC (SKNBE2, Neuroblastoma): 0.711
AUC (SKNDZ, Neuroblastoma): 0.8727
AUC (SKNEP1, Ewing Sarcoma): 0.6902
AUC (SKNMC, Ewing Sarcoma): 0.8779
AUC (SKNO1, AML): 0.8126
AUC (SKNSH, Neuroblastoma): 0.7441
AUC (SKOV3, Ovarian Cancer): 0.768
AUC (SKUT1, Leiomyosarcoma): 0.8397
AUC (SNU1, Gastric Cancer): 1
AUC (SNU46, Head and Neck Cancer): 0.6485
AUC (SNU61, Colon/Colorectal Cancer): 0.8187
AUC (SNU81, Colon/Colorectal Cancer): 0.8344
AUC (SNU182, Liver Cancer): 0.5802
AUC (SNU201, Glioblastoma): 0.8259
AUC (SNU213, Pancreatic Cancer): 0.8601
AUC (SNU216, Gastric Cancer): 0.8096
AUC (SNU245, Bile Duct Cancer): 0.7564
AUC (SNU398, Liver Cancer): 0.8358
AUC (SNU407, Colon/Colorectal Cancer): 0.7333
AUC (SNU423, Liver Cancer): 0.7846
AUC (SNU449, Liver Cancer): 0.9343
AUC (SNU466, Glioblastoma): 0.8159
AUC (SNU478, Bile Duct Cancer): 0.7556
AUC (SNU601, Gastric Cancer): 0.8298
AUC (SNU668, Gastric Cancer): 0.8689
AUC (SNU685, Endometrial/Uterine Cancer): 0.8766
AUC (SNU719, Gastric Cancer): 0.9255
AUC (SNU869, Bile Duct Cancer): 0.9315
AUC (SNU878, Liver Cancer): 0.7163
AUC (SNU886, Liver Cancer): 0.7207
AUC (SNU1041, Head and Neck Cancer): 0.836
AUC (SNU1066, Head and Neck Cancer): 0.7809
AUC (SNU1076, Head and Neck Cancer): 0.7922
AUC (SNU1077, Endometrial/Uterine Cancer): 0.8978
AUC (SNU1079, Bile Duct Cancer): 0.8976
AUC (SNU1105, Glioblastoma): 0.823
AUC (SNU1196, Bile Duct Cancer): 0.8191
AUC (SNU1214, Head and Neck Cancer): 0.7713
AUC (SNUC2A, Colon/Colorectal Cancer): 1
AUC (SNUC4, Colon/Colorectal Cancer): 0.6416
AUC (SQ1, Lung Cancer): 0.8347
AUC (SR786, Lymphoma): 0.6609
AUC (STM9101, Rhabdoid): 0.89
AUC (SUDHL8, Lymphoma): 0.5295
AUC (SW48, Colon/Colorectal Cancer): 1
AUC (SW579, Thyroid Cancer): 0.7659
AUC (SW620, Colon/Colorectal Cancer): 0.9454
AUC (SW780, Bladder Cancer): 0.7867
AUC (SW837, Colon/Colorectal Cancer): 0.675
AUC (SW900, Lung Cancer): 0.774
AUC (SW948, Colon/Colorectal Cancer): 0.5667
AUC (SW1088, Glioma): 0.7952
AUC (SW1116, Colon/Colorectal Cancer): 0.9547
AUC (SW1463, Colon/Colorectal Cancer): 0.6958
AUC (SW1710, Bladder Cancer): 0.7157
AUC (T3M10, Lung Cancer): 0.9036
AUC (T24, Bladder Cancer): 0.9232
AUC (T47D, Breast Cancer): 0.9704
AUC (TALL1, T-acute leukemia): 0.6985
AUC (TC71, Ewing Sarcoma): 0.9262
AUC (TC106, Ewing Sarcoma): 0.5807
AUC (TC205, Ewing Sarcoma): 0.554
AUC (TCCPAN2, Pancreatic Cancer): 0.884
AUC (TCCSUP, Bladder Cancer): 0.8481
AUC (TE1, Esophageal Cancer): 0.8516
AUC (TE4, Esophageal Cancer): 0.8986
AUC (TE5, Esophageal Cancer): 0.8355
AUC (TE6, Esophageal Cancer): 0.6845
AUC (TE9, Esophageal Cancer): 0.9819
AUC (TE10, Esophageal Cancer): 0.7055
AUC (TE11, Esophageal Cancer): 0.5915
AUC (TE15, Esophageal Cancer): 0.6898
AUC (TE617T, Rhabdomyosarcoma): 0.7575
AUC (TF1, AML): 0.4573
AUC (TM87, Rhabdoid): 0.6723
AUC (TOLEDO, Lymphoma): 0.9051
AUC (TOV21G, Ovarian Cancer): 0.8786
AUC (TT2609C02, Thyroid Cancer): 0.6078
AUC (TT, Thyroid Cancer): 0.6637
AUC (TTC442, Rhabdomyosarcoma): 0.8716
AUC (TTC549, Rhabdoid): 0.683
AUC (TTC642, Rhabdoid): 0.604
AUC (TTC1240, Rhabdoid): 0.6274
AUC (TYKNU, Ovarian Cancer): 0.7341
AUC (U2OS, Osteosarcoma): 0.9217
AUC (U266B1, Myeloma): 0.8925
AUC (U937, AML): 0.6875
AUC (UACC62, Melanoma): 0.717
AUC (UACC257, Melanoma): 0.8193
AUC (UBLC1, Bladder Cancer): 0.7124
AUC (UMUC1, Bladder Cancer): 0.6454
AUC (UW228, Medulloblastoma): 1
AUC (VMCUB1, Bladder Cancer): 0.6611
AUC (VMRCRCW, Kidney Cancer): 0.8987
AUC (VMRCRCZ, Kidney Cancer): 0.5968
AUC (WM88, Melanoma): 0.5816
AUC (WM793, Melanoma): 0.8497
AUC (WM983B, Melanoma): 0.7071
AUC (YAPC, Pancreatic Cancer): 0.8726
AUC (YD10B, Head and Neck Cancer): 0.7608
AUC (YD15, Head and Neck Cancer): 0.6259
AUC (YD38, Head and Neck Cancer): 0.5959
AUC (YH13, Glioblastoma): 0.7751
